In paper PMC9401498 (Clinical Cancer Research, 2021):
Entries after “also recorded” stand apart in the source; their conditions may differ.

System: patients with advanced and/or treatment-refractory solid tumors
Assay: Safety and tolerability: adverse events
Format: in vivo, human
Details: for Alanine aminotransferase increased (treatment-related AE) / Ammonia increased (treatment-related AE) / Anemia (treatment-related AE) / Aspartate aminotransferase increased (treatment-related AE) / Blood alkaline phosphatase increased (treatment-related AE) / Blood bilirubin increased (treatment-related AE) / Blood creatinine increased (treatment-related AE) / Constipation (treatment-related AE) / Decreased appetite (treatment-related AE) / Diarrhea (treatment-related AE) / Dysgeusia (treatment-related AE) / Dyspepsia (treatment-related AE) / Fatigue (treatment-related AE) / Gastroesophageal reflux disease (treatment-related AE) / Hypomagnesemia (treatment-related AE) / Hyponatremia (treatment-related AE) / Nausea (treatment-related AE) / Neuropathy peripheral (treatment-related AE) / Patients with ≥1 treatment-emergent AE / Patients with ≥1 treatment-related AE / Photophobia (treatment-related AE) / Photopsia (treatment-related AE) / Thrombocytopenia (treatment-related AE) / Vision blurred (treatment-related AE) / Vomiting (treatment-related AE) / Weight decreased (treatment-related AE) / γ-Glutamyltransferase increased (treatment-related AE) / Abdominal distension (treatment-related AE) / Activated partial thromboplastin time prolonged (treatment-related AE): TID-fasted (n = 32)
[1] = across doses and schedules, 120 patients

## O=C(Cc1cccc(OC(F)(F)F)c1)Nc1ccc(CCCCc2nnc(NC(=O)Cc3ccccn3)s2)nn1 [telaglenastat, Telaglenastat]
All grades
  Alanine aminotransferase increased (treatment-related AE): 6 (18.8) n (%)
  Ammonia increased (treatment-related AE): 0 n (%)
  Anemia (treatment-related AE): 0 n (%)
  Aspartate aminotransferase increased (treatment-related AE): 6 (18.8) n (%)
  Blood alkaline phosphatase increased (treatment-related AE): 2 (6.3) n (%)
  Blood bilirubin increased (treatment-related AE): 0 n (%)
  Blood creatinine increased (treatment-related AE): 1 (3.1) n (%)
  Constipation (treatment-related AE): 2 (6.3) n (%)
  Decreased appetite (treatment-related AE): 0 n (%)
  Diarrhea (treatment-related AE): 1 (3.1) n (%)
  Dysgeusia (treatment-related AE): 1 (3.1) n (%)
  Dyspepsia (treatment-related AE): 0 n (%)
  Fatigue (treatment-related AE): 7 (21.9) n (%)
  Gastroesophageal reflux disease (treatment-related AE): 0 n (%)
  Hypomagnesemia (treatment-related AE): 0 n (%)
  Hyponatremia (treatment-related AE): 0 n (%)
  Nausea (treatment-related AE): 2 (6.3) n (%)
  Neuropathy peripheral (treatment-related AE): 1 (3.1) n (%)
  Patients with ≥1 treatment-emergent AE: 30 (93.8) n (%)
  Patients with ≥1 treatment-related AE: 23 (71.9) n (%)
  Photophobia (treatment-related AE): 1 (3.1) n (%)
  Photopsia (treatment-related AE): 1 (3.1) n (%)
  Thrombocytopenia (treatment-related AE): 0 n (%)
  Vision blurred (treatment-related AE): 0 n (%)
  Vomiting (treatment-related AE): 4 (12.5) n (%)
  Weight decreased (treatment-related AE): 0 n (%)
  γ-Glutamyltransferase increased (treatment-related AE): 1 (3.1) n (%)
Grade 3
  Abdominal distension (treatment-related AE): 0 n (%)
  Activated partial thromboplastin time prolonged (treatment-related AE): 0 n (%)
  Alanine aminotransferase increased (treatment-related AE): 5 (15.6) n (%)
  Ammonia increased (treatment-related AE): 0 n (%)
  Anemia (treatment-related AE): 0 n (%)
  Aspartate aminotransferase increased (treatment-related AE): 3 (9.4) n (%)
  Blood alkaline phosphatase increased (treatment-related AE): 1 (3.1) n (%)
  Blood bilirubin increased (treatment-related AE): 0 n (%)
  Blood creatinine increased (treatment-related AE): 1 (3.1) n (%)
  Constipation (treatment-related AE): 0 n (%)
  Decreased appetite (treatment-related AE): 0 n (%)
  Diarrhea (treatment-related AE): 0 n (%)
  Dysgeusia (treatment-related AE): 0 n (%)
  Dyspepsia (treatment-related AE): 0 n (%)
  Fatigue (treatment-related AE): 0 n (%)
  Gastroesophageal reflux disease (treatment-related AE): 0 n (%)
  Hypomagnesemia (treatment-related AE): 0 n (%)
  Hyponatremia (treatment-related AE): 0 n (%)
  Nausea (treatment-related AE): 0 n (%)
  Neuropathy peripheral (treatment-related AE): 0 n (%)
  Patients with ≥1 treatment-emergent AE: 9 (28.1) n (%)
  Patients with ≥1 treatment-related AE: 4 (12.5) n (%)
  Photophobia (treatment-related AE): 0 n (%)
  Photopsia (treatment-related AE): 0 n (%)
  Thrombocytopenia (treatment-related AE): 0 n (%)
  Vision blurred (treatment-related AE): 0 n (%)
  Vomiting (treatment-related AE): 0 n (%)
  Weight decreased (treatment-related AE): 0 n (%)
  γ-Glutamyltransferase increased (treatment-related AE): 0 n (%)
Grade 4
  Abdominal distension (treatment-related AE): 0 n (%)
  Activated partial thromboplastin time prolonged (treatment-related AE): 0 n (%)
  Alanine aminotransferase increased (treatment-related AE): 0 n (%)
  Ammonia increased (treatment-related AE): 0 n (%)
  Anemia (treatment-related AE): 0 n (%)
  Aspartate aminotransferase increased (treatment-related AE): 2 (6.3) n (%)
  Blood alkaline phosphatase increased (treatment-related AE): 0 n (%)
  Blood bilirubin increased (treatment-related AE): 0 n (%)
  Blood creatinine increased (treatment-related AE): 0 n (%)
  Constipation (treatment-related AE): 0 n (%)
  Decreased appetite (treatment-related AE): 0 n (%)
  Diarrhea (treatment-related AE): 0 n (%)
  Dysgeusia (treatment-related AE): 0 n (%)
  Dyspepsia (treatment-related AE): 0 n (%)
  Fatigue (treatment-related AE): 0 n (%)
  Gastroesophageal reflux disease (treatment-related AE): 0 n (%)
  Hypomagnesemia (treatment-related AE): 0 n (%)
  Hyponatremia (treatment-related AE): 0 n (%)
  Nausea (treatment-related AE): 0 n (%)
  Neuropathy peripheral (treatment-related AE): 0 n (%)
  Patients with ≥1 treatment-emergent AE: 3 (9.4) n (%)
  Patients with ≥1 treatment-related AE: 3 (9.4) n (%)
  Photophobia (treatment-related AE): 0 n (%)
  Photopsia (treatment-related AE): 0 n (%)
  Thrombocytopenia (treatment-related AE): 0 n (%)
  Vision blurred (treatment-related AE): 0 n (%)
  Vomiting (treatment-related AE): 0 n (%)
  Weight decreased (treatment-related AE): 0 n (%)
  γ-Glutamyltransferase increased (treatment-related AE): 1 (3.1) n (%)
TID-fasted, 7/32
  Incidence of treatment-related grade 3/4 AEs: 22%
Across doses and schedules, 87/120 patients
  Patients with treatment-related AEs of any grade: 72.5%
[1]
  ALT increased, treatment-related AE of any grade: 17%
  AST increased, treatment-related AE of any grade: 13%
  Fatigue, treatment-related AE of any grade: 23%
  Nausea, treatment-related AE of any grade: 19%
  Photophobia, treatment-related AE of any grade: 11%
All due to progressive disease (PD)
  Patients who died during the study-reporting period: Seven
Dose escalation, BID-fed schedule
  DLTs: No DLTs
Either schedule
  Hy's Law criteria (drug-induced liver injury): no patients on either schedule met criteria for the Hy's Law; also recorded: no cases of drug-induced liver injury according to the Hy's law criteria
Four SAEs: ALT and AST increase (400 mg TID), blood creatinine increase (250 mg TID), grade 2 convulsion (1,000 mg BID)
  Patients with treatment-related SAEs: 3 patients
